# In patent US12653194B2, “Compositions and methods for promoting soil microbials for plant health and stress tolerance” (The United States of America, as represented by The …, priority 2021, dated 2026):
# Tested on: soil microbials (fungi and bacteria)
# Test: Peach orchard field trial: soil fungal and bacterial abundance (16S rRNA / ITS sequencing, PCA)
# Type: in vivo
# Conditions: applied in 110 mL water within 15 cm of tree trunk plus 190 mL water, extract 34 HCE about 16x diluted (0.0625xHCE), 300,000 IJs per tree
# Excerpt: The pheromone can be extracted with alcohol in a concentration range from about 0% to about 95%. The liquid (supernatant) may be removed and concentrated to produce a dry extract by using a stream of nitrogen, by rotary evaporation, by lyophilization, or by any equivalent means. The dry powder may be resuspended in water and centrifuged to separate insoluble debris from water-soluble pheromones. For storage the supernatant may be concentrated to dryness using a lyophilizer, a spray drier, or any equivalent means. The concentration and ratio of the pheromone mixture was evaluated for its activity on plants. […] In addition, for example, one insect host cadaver extract from Galleria mellonella (average weight of G. mellonella larvae, wax worm, is estimated to be approximately 232+/−57 mg) is diluted in 200 μL water which is physiologically relevant concentration as 1×HCE. When one insect host cadaver extract from Galleria mellonella is resuspended in 3200 μL (about 16 times dilution or 0.0625×HCE). Total 34 HCE S. carpocapsae pheromone extracts with 300,000 S. carpocapsae IJs in 110 mL of water in 15 cm soil surrounding the tree trunk. Then an additional 190 mL of water was added to the 15 cm of soil surrounding the tree trunk. […]
structure (smiles),measurement,value
CCOP(=S)(OCC)Oc1nc(Cl)c(Cl)cc1Cl [Chlorpyrifos],time for which soil microbials were promoted / soil microbial abundance increased,≤ 2 weeks
